How the values were obtained:
Format in all cases: in vivo
[1] = system: Nilaparvata lugens; experiment: Rice brown plant hopper (Nilaparvata lugens) on sprayed rice seedlings; settings: 100 ppm; after 72 hours
Procedure: B.9 Rice Brown Plant Hopper (Nilaparvata lugens)
(§1) Rice seedlings were cleaned and washed 24 hours before spraying. The active compounds were formulated in 1:1 acetone:water (vol:vol) and 0.01% vol/vol surfactant (Kinetic HV) was added. Potted rice seedlings were sprayed with 5 ml test solution, air dried, covered with Mylar cages and inoculated with 10 adults. Treated rice plants were kept at about 28-29° C. and relative humidity of about 50-60%. Percent mortality was recorded after 72 hours.

[2] = system: Myzus persicae; experiment: Green peach aphid (Myzus persicae) through systemic means, artificial diet under membrane in microtiter plates; settings: 72 h, read-out: mortality in comparison with untreated controls
Text: For evaluating control of green peach aphid (Myzus persicae) through systemic means the test unit consisted of 96-well-microtiter plates containing liquid artificial diet under an artificial membrane.
The compounds were formulated using a solution containing 75% v/v water and 25% v/v DMSO. Different concentrations of formulated compounds were pipetted into the aphid diet, using a custom built pipetter, at two replications.
After application, 5-8 adult aphids were placed on the artificial membrane inside the microtiter plate wells. The aphids were then allowed to suck on the treated aphid diet and incubated at about 23±1° C. and about 50±5% relative humidity for 3 days. Aphid mortality and fecundity was then visually assessed.

[3] = system: Megoura viciae; experiment: Vetch aphid (Megoura viciae) through contact or systemic means, broad bean leaf disks; settings: foliar, 120 h, read-out: mortality in comparison with untreated controls
Procedure: B.10 Vetch Aphid (Megoura viciae)
For evaluating control of vetch aphid (Megoura viciae) through contact or systemic means the test unit consisted of 24-well-microtiter plates containing broad bean leaf disks.
The compounds were formulated using a solution containing 75% v/v water and 25% v/v DMSO. Different concentrations of formulated compounds were sprayed onto the leaf disks at 2.5 μl, using a custom built micro atomizer, at two replications.
After application, the leaf disks were air-dried and 5-8 adult aphids placed on the leaf disks inside the microtiter plate wells. The aphids were then allowed to suck on the treated leaf disks and incubated at about 23±1° C. and about 50±5% relative humidity for 5 days. Aphid mortality and fecundity was then visually assessed.

[4] = system: Aedes aegypti; experiment: whole plant or invertebrate; settings: 48 h, larval mortality after 2 days, read-out: mortality in comparison with untreated controls
Procedure: B.11 Yellow Fever Mosquito (Aedes aegypti)
For evaluating control of yellow fever mosquito (Aedes aegypti) the test unit consisted of 96-well-microtiter plates containing 200 μl of tap water per well and 5-15 freshly hatched A. aegypti larvae.
The active compounds were formulated using a solution containing 75% (v/v) water and 25% (v/v) DMSO. Different concentrations of formulated compounds or mixtures were sprayed onto the insect diet at 2.5 μl, using a custom built micro atomizer, at two replications.
After application, microtiter plates were incubated at 28+1° C., 80+5% RH for 2 days. Larval mortality was then visually assessed.

[5] = system: Aphis craccivora; experiment: Cowpea aphid (Aphis craccivora) on sprayed cowpea plants; settings: 72 h, read-out: mortality in comparison with untreated controls
Procedure: B.3 Cowpea Aphid (Aphis craccivora)
The active compound is dissolved at the desired concentration in a mixture of 1:1 (vol:vol) distilled water:acetone. Surfactant (Kinetic HV) is added at a rate of 0.01% (vol/vol). The test solution is prepared at the day of use.
Potted cowpea plants were colonized with approximately 50-100 aphids of various stages by manually transferring a leaf tissue cut from infested plant 24 hours before application. Plants were sprayed after the pest population has been recorded. Treated plants are maintained on light carts at about 28° C. Percent mortality was assessed after 72 hours.

[6] = system: Ceratitis capitata; experiment: Mediterranean fruitfly (Ceratitis capitata) control, microtiter plates with insect diet and eggs; settings: 120 h, read-out: mortality in comparison with untreated controls
Procedure: B.5 Mediterranean Fruitfly (Ceratitis capitata)
For evaluating control of Mediterranean fruitfly (Ceratitis capitata) the test unit consisted of microtiter plates containing an insect diet and 50-80 C. capitata eggs.
The compounds were formulated using a solution containing 75% v/v water and 25% v/v DMSO. Different concentrations of formulated compounds were sprayed onto the insect diet at 5 μl, using a custom built micro atomizer, at two replications.
After application, microtiter plates were incubated at about 28±1° C. and about 80±5% relative humidity for 5 days. Egg and larval mortality was then visually assessed.

[7] = system: Nephotettix virescens; experiment: Rice green leafhopper (Nephotettix virescens) on sprayed rice seedlings; settings: 72 h, read-out: mortality in comparison with untreated controls
Procedure: B.7 Rice Green Leafhopper (Nephotettix virescens)
as §1, with “acetone:water (vol:vol),” for “acetone:water (vol:vol)”, “with 5-6” for “with 5”, “Mylar cages” for “Mylar”

With `O=C(NCC(F)(F)F)NN=c1ccccn1Cc1ccc(Cl)nc1` [IB.1-3] as the compound, how does the “mortality in comparison with untreated controls” value [1] read?
The value was “at least 75%”.

Which results are given for `CO/N=C/C(=O)ON=c1ccccn1Cc1cnc(Cl)s1` (mixture of isomers) [IA.1-4, [(E/Z)-[1-[(2-chlorothiazol-5-yl)methyl]-2-pyridylidene]amino] (2E/Z)-2-methoxyimino-acetate]?
mortality at 2500 ppm [2]: ≥ 75%; mortality at 2500 ppm [3]: ≥ 75%; mortality at 2500 ppm [4]: ≥ 75%

What does the source list for `CNC(=O)NN=c1ccccn1Cc1ccc(Cl)nc1` (mixture of isomers) [IB.1-1, 1-[(E/Z)-[1-[(6-chloro-3-pyridyl)methyl]-2-pyridylidene]amino]-3-methyl-urea]?
mortality at 500 ppm [5]: ≥ 75%; mortality at 2500 ppm [2]: ≥ 75%; mortality at 2500 ppm [6]: ≥ 75%; mortality at 500 ppm [7]: ≥ 75%; mortality at 2500 ppm [3]: ≥ 75%; mortality at 2500 ppm [4]: ≥ 75%
